One data set deals with β-catenin. Description: ELISA of β-catenin in the nucleus of pulmonary cells of mice after CO2 inhalation. Type of data set: in vivo. To be noted: inhaled air with CO2 content above 10%, without decrease in oxygen, versus atmospheric air. The protocol: (§1) 2/After keeping the mice for 10 minutes in the chambers at the various concentrations of CO2 stated above, the mice were sacrificed (one hour after the start of the experiment) in order to determine the proteins β-catenin and NF-κBp65 in the nucleus of their pulmonary cells.
(§2) These two proteins are recognized markers of inflammation and of cancer. They were determined on the basis of optical density using specialized kits. β-Catenin was determined by ELISA (Catenin Enzyme Immunoassay Kit, Assay designs, Ann Arbor, Mich.) following the manufacturer's instructions. The protein NF-κB p65 was determined by another ELISA assay (TrasAM NF-κB p65 nuclear DNA based ELISA, Active Motif, Rixensart, Belgium) following the manufacturer's instructions. The values obtained, presented in the diagram in FIG. 2, are expressed relative to the total amount of proteins extracted from the cell nucleus.
For orientation: ELISA stands for enzyme-linked immunosorbent assay.

Data set [1] has as its system BALB/c mice. The experiment in a line: Plethysmography (Penh value) of mice breathing air enriched in CO2. The format is in vivo. The method, then: 1/ BALB/c mice were placed in a closed chamber in which the proportion of CO2, at constant proportion of oxygen, was raised artificially to 2 (atmospheric air control), 5, 10 and 15% by injection of CO2 into the chamber every other minute. At each of these concentrations, non-invasive functional testing was carried out on the mice by plethysmography, according to the technique described by Hamelmann et al. (1997) Am J Respir Crit Care Med 156: 766-775). This technique involves assessing the respiratory distress of the mice by determining the Penh (enhanced pause) value.

The subject of a further data set is NF-κB p65. Description: ELISA of NF-κB p65 in the nucleus of pulmonary cells of mice after CO2 inhalation. The conditions noted are these: inhaled air with CO2 content above 10%, without decrease in oxygen, versus atmospheric air. The format is in vivo. The method, then: as §1, §2
Data set [2] deals with BALB/c mice. To be noted: CO2 of tobacco smoke selectively trapped by the filter, 38 minutes inhalation.
Description: The experiment was conducted on BALB/c mice aged from 6 to 7 weeks under in vivo conditions. The number of mice used was 32 males, divided into four groups of eight. […] Each experiment lasted 38 minutes, or typically the equivalent of the consumption of 5 cigarettes by a smoker.
The mice were sacrificed after inhalation of air for 38 minutes in the four situations described above (see also the commentary of FIG. 3) and the lungs were removed immediately for analysis.
The lungs were analysed in order to measure the activity or the secretion of six proteins that are known markers of inflammation. […] These proteins are as follows: RANTES, IL-6, TNF-alpha, MIP-2, PP2A and NE-κB p65. […] Measurements of activity or of relative concentration of these proteins were performed using the following commercial kits: Mouse TNF-alpha/TNFSF1A DuoSet (ELISA assay for the concentration of TNF-alpha); Mouse CXCL2/MIP-2 DuoSet (ELISA assay for the concentration of MIP-2), Mouse CCL5/RANTES ELISpot Kit (ELISpot assay for the secretion of RANTES); Mouse IL-6 ELISpot Kit (ELISpot assay for the secretion of IL-6), all from R&D Systems (Minneapolis, Minn., USA).

Turning to `O=C=O` [CO2, carbon dioxide], the “Expression of β-catenin in lung tissues” value in the data set on β-catenin is recorded as “very significant increase”. For the same molecule, the “Penh value, level relative to control” value with BALB/c mice [1] (15% CO2 in inhaled air at constant proportion of oxygen, versus atmospheric air control) turned out to be 6 times. Also, the “Change of Penh value” with BALB/c mice [1] (proportion of CO2 changes from 10 to 15%) is “doubled”. Further, the “Expression of NF-κBp65 in lung tissues” value in the data set with NF-κB p65 is recorded as “very significant increase”.
As for `[K+].[OH-]` [KOH solution, potassium hydroxide], the “Inflammation found in mice exposed to tobacco smoke” value with BALB/c mice [2] is given as “eliminated partially or even completely”.

(Values after patent publication US20100108083A1, “USE OF MEANS FOR TRAPPING CO2 IN A FILTER FOR PREVENTING INFLAMMATION, CANCER AND CARDIOVASCULAR DISEASES IN A SUBJECT EXPOSED TO TOBACCO SMOKE” (priority 2007, published 2010).)
